Test results published in patent US11622937B2, “Polyphenolic polymer to make water-insoluble molecules become water-soluble” (priority 2015, dated 2023).
Structures can show the parent of a compound that is named as a salt.

Experiments:
[1] = estimated; cited from earlier work
[2] = cited from earlier work
[3] = Solubility with Polyphenolic Polymer in water; conditions: molecule formulated with Polyphenolic Polymer
[4] = Comparative study of solubility profile in water (spectrophotometric absorption at 262); format: physicochemical; conditions: 200 ml DI water, filtered 0.45 micron
Experimental: A comparative study was conducted to observe the solubility profile in water. Materials: Ibuprofen was purchased from Spectrum (USP grade) USA. […] Spectrophotometer used in the study is from Beckman Coulter DU800. Sample preparation; 200 mg of Ibuprofen was weighed and ground in a […] -mortar and dissolved in 200 ml of DI water.

Structure (SMILES)	solubility in water [1] [µM]	Reported Solubility in water [2]	Solubility with Polyphenolic Polymer in water (more than 99%) [3]	solubility [4]
C=C(c1ccc(C(=O)O)cc1)c1cc2c(cc1C)C(C)(C)CCC2(C)C [Bexarotene, Free Acid (4), Bexarotene]	10 to 50	Insoluble		
CCCCCOC(=O)Nc1nc(=O)n([C@@H]2O[C@H](C)[C@@H](O)[C@H]2O)cc1F [Capecitabine]		Insoluble	Water Soluble	
NC(=O)N1c2ccccc2C=Cc2ccccc21 [Carbamazepine]		Insoluble	Water Soluble	
Cc1ccc(-c2cc(C(F)(F)F)nn2-c2ccc(S(N)(=O)=O)cc2)cc1 [Celecoxib]		Insoluble	Water Soluble	
O=C1CCc2cc(OCCCCc3nnnn3C3CCCCC3)ccc2N1 [Cilostazol]		Insoluble	Water Soluble	
CC[C@H]1OC(=O)[C@H](C)[C@@H](O[C@H]2C[C@@](C)(OC)[C@@H](O)[C@H](C)O2)[C@H](C)[C@@H](O[C@@H]2O[C@H](C)C[C@H](N(C)C)[C@H]2O)[C@](C)(OC)C[C@@H](C)C(=O)[C@H](C)[C@@H](O)[C@]1(C)O [Clarithromycin]		Insoluble	Water Soluble	
COC1=C(OC)C(=O)C(C/C=C(\C)CC/C=C(\C)CC/C=C(\C)CC/C=C(\C)CC/C=C(\C)CC/C=C(\C)CC/C=C(\C)CC/C=C(\C)CC/C=C(\C)CCC=C(C)C)=C(C)C1=O [CoQ10]		Insoluble	Water Soluble	
C[C@@H]1C[C@H]2[C@@H]3CCC4=CC(=O)C=C[C@]4(C)[C@@]3(F)[C@@H](O)C[C@]2(C)[C@@]1(O)C(=O)CO [Dexamethasone]		Insoluble	Water Soluble	
CN1C[C@H](C(=O)N[C@]2(C)O[C@@]3(O)[C@@H]4CCCN4C(=O)[C@H](Cc4ccccc4)N3C2=O)C[C@@H]2c3cccc4[nH]cc(c34)C[C@H]21 [Dihydroergotamine Mesylate]		Insoluble	Water Soluble	
CC(=O)O[C@@]12CO[C@@H]1C[C@H](O)[C@@]1(C)C(=O)[C@H](O)C3=C(C)[C@@H](OC(=O)[C@H](O)[C@@H](NC(=O)OC(C)(C)C)c4ccccc4)C[C@@](O)([C@@H](OC(=O)c4ccccc4)[C@H]21)C3(C)C [Docetaxel]		Insoluble	Water Soluble	
COc1cccc2c1C(=O)c1c(O)c3c(c(O)c1C2=O)C[C@@](O)(C(=O)CO)C[C@@H]3O[C@H]1C[C@H](N)[C@H](O)[C@H](C)O1 [Doxorubicin]		Insoluble	Water Soluble	
C#Cc1cccc(Nc2ncnc3cc(OCCOC)c(OCCOC)cc23)c1 [Erlotinib Monohydrochloride]		Insoluble	Water Soluble	
CCC(=O)O[C@]1(C(=O)SCF)[C@H](C)C[C@H]2[C@@H]3C[C@H](F)C4=CC(=O)C=C[C@]4(C)[C@@]3(F)[C@@H](O)C[C@@]21C [Fluticasone Propionate]		Insoluble	Water Soluble	
CC(C)Cc1ccc(C(C)C(=O)O)cc1 (centres unmarked) [Ibuprofen]		Insoluble		less than 1%
CCC(C)n1ncn(-c2ccc(N3CCN(c4ccc(OCC5COC(Cn6cncn6)(c6ccc(Cl)cc6Cl)O5)cc4)CC3)cc2)c1=O (centres unmarked) [Itraconazole]		Insoluble	Water Soluble	
O=c1c(O)c(-c2ccc(O)cc2)oc2cc(O)cc(O)c12 [Kaempferol]		Insoluble	Water Soluble	
Nc1cccc2c1CN(C1CCC(=O)NC1=O)C2=O (centres unmarked) [Lenalidomide]		Insoluble	Water Soluble	
CN(Cc1cnc2nc(N)nc(N)c2n1)c1ccc(C(=O)N[C@@H](CCC(=O)O)C(=O)O)cc1 [Methotrexate]		Insoluble	Water Soluble	
Cc1nc2n(c(=O)c1CCN1CCC(c3noc4cc(F)ccc34)CC1)CCCC2O (centres unmarked) [Paliperidone]		Insoluble	Water Soluble	
CN1C(C(=O)Nc2ccccn2)=C(O)c2ccccc2S1(=O)=O [Piroxicam (pain), Piroxicam]		Insoluble	Water Soluble	
Nc1cccc2c1C(=O)N(C1CCC(=O)NC1=O)C2=O (centres unmarked) [Pomalidomide]		Insoluble	Water Soluble	
CC[C@H](C)C(=O)O[C@H]1C[C@H](O)C=C2C=C[C@H](C)[C@H](CC[C@@H](O)C[C@@H](O)CC(=O)O)[C@H]21 [Pravastatin Sodium]		Insoluble	Water Soluble	
CCc1nc(N)nc(N)c1-c1ccc(Cl)cc1 [Pyrimethamine]		Insoluble	Water Soluble	
CO[C@H]1C[C@@H]2CC[C@@H](C)[C@@](O)(O2)C(=O)C(=O)N2CCCC[C@H]2C(=O)O[C@H]([C@H](C)C[C@@H]2CC[C@@H](O)[C@H](OC)C2)CC(=O)[C@H](C)/C=C(\C)[C@@H](O)[C@@H](OC)C(=O)[C@H](C)C[C@H](C)/C=C/C=C/C=C/1C [Rapamycin]		Insoluble	Water Soluble	
CO[C@H]1/C=C/O[C@@]2(C)Oc3c(C)c(O)c4c(O)c(c(/C=N/N5CCN(C)CC5)c(O)c4c3C2=O)NC(=O)/C(C)=C\C=C\[C@H](C)[C@H](O)[C@@H](C)[C@@H](O)[C@@H](C)[C@H](OC(C)=O)[C@@H]1C [Rifampin]		Insoluble	Water Soluble	
